The target in data set [1] is T1, GES-5 (Klebsiella pneumoniae, UniProt Q09HD0).
T1 construct: made in house; host or cells: E. coli BL21(DE3)
It is filed as biochemical. As to conditions: reporter substrate, purified recombinant GES-5. As to the method: For protein expression, competent E. coli BL21(DE3) cells (PROMEGA, Madison, WI, USA) were transformed with recombinant plasmid blaGES-5/pet24a(+) as reported. Protein purification was performed using an Äkta Prime plus chromatograph system (GE Healthcare Life Sciences, Freiburg, Germany). GES-5 (Uniprot ID Q09HD0) was conveniently purified in a single step using a Macro-Prep High Q resin (Bio-Rad, Hercules, CA, USA.).

Data set [2] addresses T1, GES-5. The data set can be described thus: GES-5 hydrolysis inhibition, nitrocefin spectrophotometric assay. Type of data set: biochemical. As to conditions: for LE vs. GES-5: ligand efficiency from Ki vs GES-5. The protocol:
(§1) Reactions were monitored using a Jasco V730 spectrophotometer. […] In order to perform spectrophotometric tests, compounds were dissolved in dimethyl sulfoxide (DMSO) to a concentration of 25 mM and stored at −20 °C. […] The reaction was typically initiated by adding GES-5 (2 nM final concentration), previously dialyzed in the reaction buffer. […] For KPC-2 experiments, the protein was obtained, and assays were conducted as previously reported.

The target of a further data set is KPC-2 (Klebsiella pneumoniae, UniProt Q9F663). The data set can be described thus: KPC-2 inhibition assay, conducted as previously reported. Type of data set: biochemical. The following applies: for % inhibition at [1mM] vs KPC-2: 1 mM inhibitor; for Ki: calculated from IC50 by Cheng-Prusoff; for LE vs. KPC-2: ligand efficiency from Ki vs KPC-2. As to the method: as §1

In data set [3] the test system is O=C(Cc1cccs1)N[C@@H]1C(=O)N2C(C(=O)O)=C(/C=C/c3ccc([N+](=O)[O-])cc3[N+](=O)[O-])CS[C@H]12. Briefly: purified protein, by the assay type. As to conditions: other: reporter substrate, purified recombinant GES-5.

Chain of KPC-2 (Q9F663 25-293, looked up, species assumed): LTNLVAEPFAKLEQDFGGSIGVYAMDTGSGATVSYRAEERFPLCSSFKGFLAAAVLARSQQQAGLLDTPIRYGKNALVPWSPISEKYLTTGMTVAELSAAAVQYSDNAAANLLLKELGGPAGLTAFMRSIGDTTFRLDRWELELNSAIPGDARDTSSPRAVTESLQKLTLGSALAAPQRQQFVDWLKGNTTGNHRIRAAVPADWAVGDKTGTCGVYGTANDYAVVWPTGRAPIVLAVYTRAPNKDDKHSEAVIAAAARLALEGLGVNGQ
T1 sequence (Q09HD0 19-287): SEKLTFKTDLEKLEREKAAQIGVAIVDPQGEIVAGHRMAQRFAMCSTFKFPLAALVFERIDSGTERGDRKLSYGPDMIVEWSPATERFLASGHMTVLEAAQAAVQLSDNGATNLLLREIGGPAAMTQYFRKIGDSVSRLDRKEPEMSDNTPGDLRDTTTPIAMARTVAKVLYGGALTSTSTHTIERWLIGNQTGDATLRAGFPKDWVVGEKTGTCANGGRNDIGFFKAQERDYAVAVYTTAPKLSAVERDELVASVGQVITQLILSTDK

For the compound `O=C(Cc1cccs1)N[C@@H]1C(=O)N2C(C(=O)O)=C(CSc3ccc([N+](=O)[O-])c(C(=O)O)c3)CS[C@H]12` [CENTA], the Km at GES-5 [1] is 524 µM.

As for `COc1cc(Br)c(-c2nnn[nH]2)cc1OC` [Compound 8], on GES-5 [2], the Ki amounted to 890 µM and the “LE vs. GES-5” value is on record as 0.89 (0.27) kcal/mol/non-hydrogen atom. Further, on KPC-2, the “% inhibition at [1mM] vs KPC-2” value is “at least 30%”, the Ki is 350 µM and the “LE vs. KPC-2” value is given as 0.30 kcal/mol/non-hydrogen atom.

In the case of `O=C(O)c1cccc(S(=O)(=O)Nc2cccnc2)c1` [Compound 12], at GES-5 [2], the Ki was 1010 µM and the “LE vs. GES-5” value is reported as 1.01 (0.22) kcal/mol/non-hydrogen atom. Moreover, on KPC-2, the “% inhibition at [1mM] vs KPC-2” value is “at least 30%”, the Ki is 1380 µM and the “LE vs. KPC-2” value is 0.21 kcal/mol/non-hydrogen atom.

Consider `Nc1nc(=O)n(CC(O)C(=O)O)cc1Br` (centres unmarked) [Compound 13], for which the affinity on GES-5 [2] corresponds to a Ki of 810 µM. In addition, on KPC-2, the “% inhibition at [1mM] vs KPC-2” value is “at least 30%”, the Ki is 280 µM and the “LE vs. KPC-2” value is recorded as 0.33 kcal/mol/non-hydrogen atom.

Take `COc1ccc2[nH]c(C(=O)O)nc2c1` [Compound 43]: at GES-5 [2], the “% inhibition at [1mM] vs GES-5” value was 41% and the Ki was determined as 660 µM. Further, on KPC-2, the Ki was 450 µM and the “LE vs. KPC-2” value is recorded as 0.33 kcal/mol/non-hydrogen atom.

For the compound GES-5 (Klebsiella pneumoniae), in data set [3], the Km came out at 208 µM.

As a reminder, the Km is the concentration of substrate that gives half-maximal velocity. The Ki is the equilibrium dissociation constant of an inhibitor or competing ligand from its target. By % inhibition is commonly meant how much of the control response was suppressed.

The values above are taken from paper PMC7072645, “Targeting the Class A Carbapenemase GES-5 via Virtual Screening” (Biomolecules, 2020).
